Reference: paper PMC2362091, “Expression of V1A and GRP receptors leads to cellular transformation and increased sensitivity to substance-P analogue-induced growth inhibition” (British Journal of Cancer, 2005)
≈ marks a conversion by molar mass, not a printed value. Read-outs that look alike come from different tables or passages of the source. Square brackets hold non-standard residues; d marks the D form. Peptide text beside a SMILES is read from it. NMeF = CN[C@@H](Cc1ccccc1)C(=O)O

Legend:
CHO-V1Ar cells = test: cells; format: cell-based
Method: (§1) In some assays, MTT (3-[4,5-dimethylthiazol-2yl]-2,5-diphenyl tetrazolium bromide) formazan production (Sigma) was used to measure proliferation as per the manufacturer's instructions.
(§2) Figure 4 Effect of neuropeptide on chemosensitivity. Wild-type CHO-K1 cells (left) and cells expressing the V1A (middle) or GRP (right) receptor were plated at a density of 1e^4 cells per well of a 96-well tissue culture plate in DMEM with 10% FCS and incubated overnight 37°C. […] Cell viability was assessed by MTT staining.

[1] = system: untransfected CHO-K1 cells; test: Intracellular Ca2+ (FURA-2), untransfected cells; format: cell-based; conditions: data not shown
[2] = system: ERK phosphorylation in untransfected CHO cells; test: ERK phosphorylation (Western blot), untransfected CHO cells; format: cell-based; conditions: data not shown
Method: (§3) Quiescent cell cultures in six-well plates were treated as described in figure legends and lysed at 4°C in 0.25 ml lysis buffer containing; 25 mM HEPES pH 7.4, 0.3 M NaCl, 1.5 mM MgCl2, 0.2 mM EDTA, 0.5% Triton X-100, 20 mM β-glycerphosphate, 0.5 mM dithiothreitol, 1 mM sodium orthovanadate and protease inhibitors (Boehringer Mannheim, Sussex, UK; prepared as per the manufacturer's instructions). Lysates were clarified by centrifugation, equilibrated for protein using BCA protein assay reagent (Perbio Science, Cheshire, UK) and denatured by boiling (5 min) in SDS–PAGE loading buffer. In all, 20 μl lysate/lane was resolved on 12% SDS–PAGE gels and electroblotted onto nitrocellulose membranes. Membranes were blocked in 3% bovine serum albumin in PBS containing 0.05% Tween-20. ERK1/2 phosphorylation was determined using 1 : 1000 dilution of the primary antibody followed by the appropriate HRP-labelled goat IgG (DAKO, UK) diluted 1 : 5000. Bands were visualized using enhanced chemiluminescence (ECL plus, Amersham) and quantified using a phosphor imager (Storm).
In this study, ERK activation was measured in CHO cells expressing GRP or V1A receptors in response to the appropriate neuropeptide or substance-P analogue. Activation was estimated in immunoblots from stimulated lysates using a phosphorylation state-specific antibody. […]

human GRP receptor = target: T1, human GRP receptor (Homo sapiens, UniProt P30550); test: Intracellular Ca2+ (FURA-2), CHO-GRP cells; format: cell-based; conditions: in absence of GRP
T1 construct: CHO-K1 cells were transfected with full-length human GRP receptor or human V1A receptor; expressed in transfected cells
T1 sequence (P30550 whole entry): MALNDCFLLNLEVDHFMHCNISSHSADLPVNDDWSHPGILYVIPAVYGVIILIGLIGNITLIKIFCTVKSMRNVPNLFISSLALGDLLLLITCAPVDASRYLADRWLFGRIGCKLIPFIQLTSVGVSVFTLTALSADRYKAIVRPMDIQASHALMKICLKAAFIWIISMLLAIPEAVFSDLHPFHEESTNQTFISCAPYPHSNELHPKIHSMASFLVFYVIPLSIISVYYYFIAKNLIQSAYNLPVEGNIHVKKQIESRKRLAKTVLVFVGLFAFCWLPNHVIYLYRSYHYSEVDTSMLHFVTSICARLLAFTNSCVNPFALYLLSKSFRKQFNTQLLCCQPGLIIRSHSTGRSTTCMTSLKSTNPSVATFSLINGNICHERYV
Method: (§8) Cells were trypsinised and loaded with fura-2-tetraacetoxymethylester AME (FURA-2-AM, 1 μM) in calcium-free Hank's balanced salt solution for 10 min at 37°C. The cells were pelleted and resuspended in 2 ml of Hank's balanced salt solution containing 1.8 mM CaCl2. Fluorescence was recorded in a fluorescence spectrophotometer (Perkin Elmer). Alternate dual wavelength excitation at 380 and 410 nm allowed ratiometric analysis of bound and unbound FURA-2AM when measured at 505 nm. [Ca^2+] was calculated according to the equation [Ca^2+]=K(F−Fmin)/(Fmax−F), where F is the ratio of the unknown sample, Fmax is the ratio after the addition of 0.1% Triton X-100 and Fmin is the ratio after Ca^2+ chelation with 10 mM EGTA. K is the dissociation constant for Fura-2, which is 224 nM.
(§9) Quiescent GRP (A, B) or V1A (C, D) receptor expressing CHO cells were incubated with FURA-2AM for 15 min at 37°C and ratiometric fluorescence monitored at 37°C. […] Concentration–response curves to vasopressin were carried out in control cells and in cells treated with 1 or 10 μM SP-D (C) or SP-G (D). Results are expressed as % maximum control response to neuropeptide and represent the mean±s.e.m. of four experiments.

[3] = system: GRPR-transfected CHO-K1 cells; test: Aggregation assay (anchorage-independent growth), GRPR-transfected cells; format: cell-based; conditions: low adhesion plates, 5% FCS, 7 days, viable cells counted
Method: (§4) CHO-K1 cells were suspended in DMEM in the presence of 5% FCS and seeded into low adhesion tissue culture plates on top of a layer (1 ml) of 0.5% agar. […] Cells were maintained in culture for 7 days briefly trypsinised to disaggregate clusters and viable cells counted.
(§5) Figure 3 Effect of SP-D and SP-G on clonal growth. (A) Cells were grown in 0.3% agar with 1% FCS for 8 days in the presence or absence (open bar) of 30 μM SP-D (black bar) or SP-G (grey bar). […] Aggregation assay. (B) Wild-type, GRPR-transfected and V1AR-transfected CHO-K1 cells were plated into low adhesion tissue culture plates on top of a layer of 0.5% agar in DMEM containing 5% FCS at a density of 5 × 10^4 ml^−1 in the presence of varying concentrations of SP-G. Cells were maintained in culture for 7 days, briefly trypsinised to dissagregate clusters and viable cells counted by propidium iodide exclusion.

[4] = system: ERK phosphorylation in GRP receptor expressing CHO cells; test: ERK phosphorylation (Western blot), GRP receptor expressing CHO cells; format: cell-based; conditions: for maximal stimulation of ERK: at 50 μM
Method: as §3
(§6) In this study, ERK activation was measured in CHO cells expressing GRP or V1A receptors in response to the appropriate neuropeptide or substance-P analogue. Activation was estimated in immunoblots from stimulated lysates using a phosphorylation state-specific antibody. Lysates from quiesced cells stimulated for […] with either neuropeptide or SP-D or SP-G were separated on 12% gels and blotted for pERK2 or total ERK1/2.
Figure 6 (A) ERK phosphorylation by neuropeptides. Quiescent GRP (left) or V1A (right) receptor expressing CHO cells were stimulated for 5 min with neuropeptide at the indicated concentrations. […] Representative Western blots are shown. Bar graphs represent the mean optical density (mean±s.e.m.) of four separate experiments. (B) ERK phosphorylation by substance-P analogues. Quiescent GRP (left) or V1A (right) receptor expressing CHO cells were stimulated for 5 min with SP-D (filled bars) or SP-G (open bars) at the indicated concentrations. […] Representative Western blots are shown. Bar graphs represent the mean optical density (mean±s.e.m.) of four separate experiments.
Figure 7 Effect of pertussis toxin (PTX) on ERK phosphorylation. Confluent cultures of GRP (left) or V1A (right) receptor expressing CHO cells were quiesced overnight in the presence or absence of 100 ng ml^−1 pertussis toxin. Cells were stimulated for 5 min with 30 μM SP-D or SP-G or 1 nM neuropeptide as indicated. […] Representative Western blots are shown.

[5] = system: GRP receptor expressing CHO-K1 cells; test: Clonogenic assay in semisolid media, GRP receptor expressing cells; format: cell-based; conditions: 30 μM, 0.3% agar, 1% FCS, 8 days
Method: (§7) CHO-K1 (2x10^4) viable cells were mixed with DMEM containing 0.3% agarose in the presence or absence of mediators and layered over a solid base of 0.5% agarose in DMEM in 35 mm plastic dishes. The cultures were incubated at 37°C for 1–10 days, and then stained with 1 mg ml^−1 nitro-blue tetrazolium (NBT, Sigma) overnight at 37°C. Colonies from 10 separate fields were counted using a microscope with a × 4 objective. Cloning efficiency is calculated as the percentage of original number of seeded cells forming colonies of >6 cells.
as §5

human V1A receptor [6] = target: T2, human V1A receptor (Homo sapiens, UniProt P37288); test: Intracellular Ca2+ (FURA-2), V1A-expressing CHO cells; format: cell-based; conditions: in absence of AVP
T2 construct: CHO-K1 cells were transfected with full-length human GRP receptor or human V1A receptor; expressed in transfected cells
T2 sequence (P37288 whole entry): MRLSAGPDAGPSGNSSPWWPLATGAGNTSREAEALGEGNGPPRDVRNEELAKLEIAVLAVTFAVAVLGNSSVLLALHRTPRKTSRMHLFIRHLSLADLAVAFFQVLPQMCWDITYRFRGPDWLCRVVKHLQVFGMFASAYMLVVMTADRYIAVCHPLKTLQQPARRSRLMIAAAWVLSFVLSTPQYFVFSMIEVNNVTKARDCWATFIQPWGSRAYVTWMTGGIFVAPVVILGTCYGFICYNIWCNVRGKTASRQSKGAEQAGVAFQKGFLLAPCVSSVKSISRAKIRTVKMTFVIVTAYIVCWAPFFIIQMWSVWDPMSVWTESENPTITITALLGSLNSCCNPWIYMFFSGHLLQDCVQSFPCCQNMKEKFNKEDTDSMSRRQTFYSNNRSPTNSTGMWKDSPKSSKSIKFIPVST
Method: as §8, §9

[7] = system: V1AR-transfected CHO-K1 cells; test: Aggregation assay (anchorage-independent growth), V1AR-transfected cells; format: cell-based; conditions: low adhesion plates, 5% FCS, 7 days, viable cells counted
Method: as §4, §5

[8] = system: ERK phosphorylation in V1A receptor expressing CHO cells; test: ERK phosphorylation (Western blot), V1A receptor expressing CHO cells; format: cell-based; conditions: for stimulation of ERK: at 50 μM
Method: as §3, §6
Figure 6 (A) ERK phosphorylation by neuropeptides. Quiescent GRP (left) or V1A (right) receptor expressing CHO cells were stimulated for 5 min with neuropeptide at the indicated concentrations. […] Representative Western blots are shown. Bar graphs represent the mean optical density (mean±s.e.m.) of four separate experiments. (B) ERK phosphorylation by substance-P analogues. Quiescent GRP (left) or V1A (right) receptor expressing CHO cells were stimulated for 5 min with SP-D (filled bars) or SP-G (open bars) at the indicated concentrations. […] Representative Western blots are shown. […]

[9] = system: vector control CHO-K1 cells; test: Clonogenic assay in semisolid media, vector control cells; format: cell-based; conditions: 30 μM, 0.3% agar, 1% FCS, 8 days
Method: as §7, §5

[10] = system: V1A receptor expressing CHO-K1 cells; test: Clonogenic assay in semisolid media, V1A receptor expressing cells; format: cell-based; conditions: 30 μM, 0.3% agar, 1% FCS, 8 days
Method: as §7, §5

human V1A receptor [11] = target: T2, human V1A receptor; test: Receptor binding, [125I]-AVP, CHO-K1-V1Ar cells; conditions: V1A over GRP receptor, from Ki
Method: CHO-K1 cells were maintained in DMEM supplemented with 10% (v v^−1) foetal bovine serum (heat-inactivated at 57°C for 1 h) 50 U ml^−1 penicillin, 50 μg ml^−1 streptomycin and 5 μg ml^−1 L-glutamine in a humidified atmosphere of 5% CO2:95% air at 37°C. CHO-K1 cells were transfected with full-length human GRP receptor or human V1A receptor using lipofectamine plus (Invitrogen) as per the manufacturer's instructions. Stable cell cultures were maintained in the presence of 400 μg ml^−1 G418-sulphate.
The binding parameters Kd and Bmax were calculated from competition binding isotherms with unlabelled ligand ([DeBlasi et al, 1989]).

[12] = set-up: method as in Clive et al, 2001; conditions: at therapeutic plasma concentrations; ref Clive et al, 2001; cited from earlier work
CHO-WT cells = test: Chemosensitivity, MTT assay, wild-type cells; format: cell-based; conditions: 48 h, absence of serum; read-out: IC50, inhibition of proliferation (MTT)
Method: as §1, §2

CHO-GRPr cells = test: Chemosensitivity, MTT assay, GRPr cells; format: cell-based
Method: as §1, §2

[13] = 48 h, absence of serum, read-out: IC50, inhibition of proliferation (MTT)
[14] = 48 h serum-free, no neuropeptide, read-out: IC50 (MTT), control cells of neuropeptide protection experiment

Compound	change in [Ca2+]i on their own (human GRP receptor)	cell growth in aggregation assay [3]	maximal stimulation of ERK [4]	colony formation [5]	direct mobilisation of intracellular calcium (human V1A receptor [6])	cell growth in aggregation assay [7]	stimulation of ERK [8]	cloning efficiency [9]	colony formation [10]	further results
NC(=O)CC[C@@H]1NC(=O)[C@H](Cc2ccccc2)NC(=O)[C@H](Cc2ccc(O)cc2)NC(=O)[C@@H](N)CSSC[C@@H](C(=O)N2CCC[C@H]2C(=O)N[C@@H](CCCN=C(N)N)C(=O)NCC(N)=O)NC(=O)[C@H](CC(N)=O)NC1=O [AVP, arginine vasopressin]										increase in MTT accumulation compared to control cells (CHO-V1Ar cells; 50 nM neuropeptide, at 40 μg ml^−1 etoposide, 48 h): 92%
CSCC[C@H](NC(=O)[C@H](CC(C)C)NC(=O)[C@H](Cc1c[nH]cn1)NC(=O)CNC(=O)[C@@H](NC(=O)[C@H](C)NC(=O)[C@H](Cc1c[nH]c2ccccc12)NC(=O)[C@H](Cc1c[nH]cn1)NC(=O)[C@H](CC(N)=O)NC(=O)CNC(=O)[C@H](CCCNC(=N)N)NC(=O)[C@@H]1CCCN1C(=O)[C@H](Cc1ccc(O)cc1)NC(=O)[C@H](CCSC)NC(=O)[C@H](CCCCN)NC(=O)[C@@H](NC(=O)[C@H](CC(C)C)NC(=O)[C@@H](NC(=O)[C@@H](NC(=O)CNC(=O)CNC(=O)CNC(=O)[C@H](C)NC(=O)[C@@H]1CCCN1C(=O)[C@H](CC(C)C)NC(=O)[C@@H]1CCCN1C(=O)[C@@H](N)C(C)C)[C@@H](C)O)C(C)C)[C@@H](C)O)C(C)C)C(N)=O [GRP, gastrin-releasing peptide]										change in [Ca2+]i [1]: neither GRP nor AVP produced a significant change; stimulation of ERK phosphorylation [2]: Neither AVP nor GRP produced any stimulation
CC(C)C[C@H](NC(=O)[C@H](CC(C)C)NC(=O)[C@@H](Cc1c[nH]c2ccccc12)NC(=O)[C@H](Cc1ccccc1)NC(=O)[C@@H](Cc1c[nH]c2ccccc12)NC(=O)[C@H](CCC(N)=O)NC(=O)[C@@H](Cc1ccccc1)NC(=O)[C@@H]1CCCN1C(=O)[C@H](CCCCN)NC(=O)[C@@H]1CCCN1C(=O)[C@H](N)CCCNC(=N)N)C(N)=O [SP-D, [D-Arg^1,D-Phe^5,D-Trp^7,9,Leu^11]-substance-P] (H-[dR]PKP[dF]Q[dW]F[dW]LL-NH2; N-terminus and C-terminus assumed)	no change	able to inhibit cell growth	2.8 fold	significantly reduced colony formation	did not mobilise intracellular calcium directly	able to inhibit cell growth	2 fold	no effect	significantly reduced colony formation	concentration at which activation of ERK was evident [4]: 3 µM; effect of pertussis toxin pretreatment on ERK activation by the substance ([4]; 100 ng ml^−1 PTX overnight, bombesin, 10 μM SP-D, 1 μM LPA): completely abolished
CSCC[C@H](NC(=O)[C@H](CC(C)C)NC(=O)[C@@H](Cc1c[nH]c2ccccc12)NC(=O)[C@H](Cc1ccccc1)N(C)C(=O)[C@@H](Cc1c[nH]c2ccccc12)NC(=O)[C@@H](N)CCCNC(=N)N)C(N)=O [SP-G, [Arg^6,D-Trp^7,9,N^mePhe^8]-substance-P (6–11)] (H-R[dW][NMeF][dW]LM-NH2; N-terminus and C-terminus assumed)	no change	able to inhibit cell growth	2.1 fold	significantly reduced colony formation	did not mobilise intracellular calcium directly	able to inhibit cell growth	4.3 fold	no effect	significantly reduced colony formation	selectivity for the V1A receptor (human V1A receptor [11]): six; effect of pertussis toxin pretreatment on ERK activation by the substance ([8]; 100 ng ml^−1 PTX overnight, AVP, 20 μM SP-G, 1 μM LPA): completely inhibited; toxicity in phase I clinical trial [12]: minimal toxicity
COc1cc([C@@H]2c3cc4c(cc3[C@@H](O[C@@H]3O[C@@H]5CO[C@@H](C)O[C@H]5[C@H](O)[C@H]3O)[C@H]3COC(=O)[C@H]23)OCO4)cc(OC)c1O [etoposide]										IC50 (CHO-V1Ar cells; [13]): 14.2 ± 4 µg/mL (≈ 24.1 µM); IC50 (CHO-V1Ar cells; [14]): 13 µg/mL (≈ 22.1 µM); IC50 (CHO-WT cells): 12.4 ± 3.1 µg/mL (≈ 21.1 µM); IC50 (CHO-GRPr cells; [13]): 8.1 ± 2.3 µg/mL (≈ 13.8 µM); IC50 (CHO-GRPr cells; [14]): 6.3 µg/mL (≈ 10.7 µM)
